Entries after “also recorded” stand apart in the source; their conditions may differ.
Legend:
[1] = Metabolic stability in liver microsomes; format: in vitro ADME; conditions: mouse, rat, dog, and human
Description: Figure S4. The metabolic stabilities of BPRCX807 in liver microsomes. BPRCX807 is […]

bradykinin B1 receptor = target: T1, bradykinin B1 receptor (Homo sapiens, UniProt P46663); test: Off-target standard assay (radioligand binding, Eurofins Panlabs); conditions: read-out: Inhibition of bradykinin B1 receptor (B1R)
T1 construct: purchased Eurofins Panlabs, Inc (Taipei, Taiwan, ROC)
T1 sequence (P46663 1-353): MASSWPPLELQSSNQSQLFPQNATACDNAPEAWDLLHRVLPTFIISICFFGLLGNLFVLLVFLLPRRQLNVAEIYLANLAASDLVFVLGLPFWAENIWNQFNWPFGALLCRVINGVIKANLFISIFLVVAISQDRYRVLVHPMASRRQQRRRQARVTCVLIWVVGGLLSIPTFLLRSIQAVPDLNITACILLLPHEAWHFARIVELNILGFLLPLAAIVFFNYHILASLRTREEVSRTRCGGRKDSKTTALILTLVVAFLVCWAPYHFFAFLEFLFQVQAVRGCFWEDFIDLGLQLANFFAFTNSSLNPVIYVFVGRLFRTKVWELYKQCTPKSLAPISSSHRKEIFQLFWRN
Description: (§1) Table: List of genes examined by real-time PCR and the primer sequences used.
(§2) Genes Forward primers Reverse primers […]
(§3) Vim 5’-[…]-3’ 5’-[…]-3’ […]
(§4) Zeb2 5’-[…]-3’ 5’-[…]-3’
(§5) Twist1 5’-[…]-3’ 5’-[…]-3’
(§6) Cdh1 5’-[…]-3’ 5’-[…]-3’
(§7) Mta3 5’-[…]-3’ 5’-[…]-3’ […]
(§8) Off-target standard assays
(§9) Methods employed in this study have been adapted from the scientific literature to […]
(§10) maximize reliability and reproducibility. Reference standards were run as an integral part of […]
(§11) each assay to ensure the validity of the results obtained. Radioligand binding Assays were […]
(§12) performed under conditions described in the accompanying "Methods" section of this report […]
(§13) by Eurofins Panlabs, Inc (Taipei, Taiwan, ROC).
(§14) BPRCX807 were tested in the hERG (hERG-CHO, automated patch-clamp) assay and determined at Eurofins Panlabs (Missouri, USA). The experiment was accepted in accordance with Eurofins validation Standard Operating Procedure.
(§15) Selectivity Screening of various chemokine receptors
(§16) The results were performed by Eurofins DiscoverX (Fremont, California, USA). The

dopamine D3 receptor = target: T2, dopamine D3 receptor (Homo sapiens, UniProt P35462); test: as above; conditions: read-out: Inhibition of dopamine D3 receptor (D3R)
T2 construct: purchased Eurofins Panlabs, Inc (Taipei, Taiwan, ROC)
T2 sequence (P35462 whole entry, species assumed): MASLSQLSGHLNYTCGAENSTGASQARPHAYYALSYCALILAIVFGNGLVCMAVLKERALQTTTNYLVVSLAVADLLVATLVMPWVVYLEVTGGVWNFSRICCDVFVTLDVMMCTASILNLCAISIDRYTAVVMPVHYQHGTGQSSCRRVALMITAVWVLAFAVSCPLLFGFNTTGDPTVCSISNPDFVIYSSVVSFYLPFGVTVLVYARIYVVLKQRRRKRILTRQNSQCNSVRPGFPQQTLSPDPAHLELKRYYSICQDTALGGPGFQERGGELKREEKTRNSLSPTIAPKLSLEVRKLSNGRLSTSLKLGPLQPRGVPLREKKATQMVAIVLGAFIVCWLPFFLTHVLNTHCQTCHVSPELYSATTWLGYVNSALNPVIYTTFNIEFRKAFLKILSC
Description: as §1, §2, §3, §4, §5, §6, §7, §8, §9, §10, §11, §12, §13, §14, §15, §16

[2] = Non-GLP 14-d repeated dose toxicology; format: in vivo
HCA-1 cells = test: EMT marker expression under hypoxia (qRT-PCR); format: cell-based, murine; conditions: hypoxic conditions (1% oxygen)
Description: Signaling, Danvers, MA) or β-actin (Sigma-Aldrich, St. Louis, MO) before incubation with HRP-conjugated secondary antibodies (Antibodies Inc., Davis, CA) for 1 h. Autoradiography was conducted after ECL reagent (Thermo Scientific, Rockford, IL) was added to the […]
Reverse transcription quantitative real time PCR
Total RNA was extracted from HCA-1 cells using the RNeasy Mini Kit (Qiagen, CA, USA). cDNAs were synthesized using the High-Capicity cDNA Reverse Transcription Kit (Applied Biosystems, CA, USA). Primers specific for Slug, Fn1, Cdh2, Vim, Foxc2, Zeb1, Zeb2, Twist1, Cdh1, Mta3, Cldn3, Cldn5, β-actin and GAPDH were used, and relative gene expression was determined using Real-Time SYBR Green PCR Master Mix (Applied Biosystems, CA, USA) on a QPCR System. The comparative threshold cycle method was used to calculate fold change in gene expression, which was normalized to β-actin as a […]

[3] = tested on: human liver cytochrome P450 isozymes (CYP 1A2, 2C9, 2C19, 2D6, 2E1, 3A4); conditions: 100 μM; 1A2, 2C9, 2C19, 2D6, 2E1, and 3A4 isozymes
Description: The effects of BPRCX807 on the activity of six specific human liver cytochrome P450 isozymes (CYP 1A2, 2C9, 2C19, 2D6, 2E1, 3A4) expressed in baculovirus-infected insect cell supersomes were studied. The reactions used to measure the activity of these enzymes

With `Cc1cc(NC2CCN(C(=O)CCNCC(=O)O)CC2)nc(NCc2nc(CCCNCCCNC3CCCCC3)co2)n1` [BPRCX807] the “Metabolic stability in liver microsomes” value [1] was “metabolically stable”, the inhibition at 10 µM (bradykinin B1 receptor) was 62% and the inhibition at 10 µM (dopamine D3 receptor) was 58%. For the same compound, the “Survival in repeated dose toxicology” value ([2]; SD rats, 50 mg/kg/d, 14 d) was “all animals survived up to study termination”, the “Non-GLP 14-d repeated dose, overall finding” value ([2]; rat, in vivo) was “Clean” and the “Hematological and biochemical data vs vehicle” value ([2]; rat, in vivo, 50 mg/kg/day) was “no significant difference”. The “Major organs (heart, lung, kidney, liver) vs vehicle” value ([2]; rat, in vivo, 50 mg/kg/day) was “normal in size, weight, and color”, the “Adrenal Glands/B.W.” value ([2]; rat, in vivo, sc, 50 mg/kg) was 0.0002 ± 0.00003 and the “Albumin (ALB)” value ([2]; rat, in vivo, sc, 50 mg/kg) was 4.0 ± 0.2 g/dL. The “Alkaline Phosphatase (ALP)” value ([2]; rat, in vivo, sc, 50 mg/kg) was 901 ± 60 U/L, the Basophil ([2]; rat, in vivo, sc, 50 mg/kg) was 0.002 ± 0.004 103/µL and the Basophil % ([2]; rat, in vivo, sc, 50 mg/kg) was 0.01 ± 0.02%. For the same compound, the “Blood Urea Nitrogen (BUN)” value ([2]; rat, in vivo, sc, 50 mg/kg) was 16.7 ± 2.1 mg/dL, the “Creatinine (CRE)” value ([2]; rat, in vivo, sc, 50 mg/kg) was 0.22 ± 0.04 mg/dL and the Eosinophil ([2]; rat, in vivo, sc, 50 mg/kg) was 0.01 ± 0.01 103/µL. For the same compound, the Eosinophil % ([2]; rat, in vivo, sc, 50 mg/kg) was 0.11 ± 0.05%, the Erythrocyte ([2]; rat, in vivo, sc, 50 mg/kg) was 6.33 ± 0.45 106/µL and the “Glutamate oxaloacetate transaminase (GOT)” value ([2]; rat, in vivo, sc, 50 mg/kg) was 67 ± 7 U/L. For the same compound, the “Glutamate pyruvate transaminase (GPT)” value ([2]; rat, in vivo, sc, 50 mg/kg) was 35 ± 5 U/L, the Heart/B.W. ([2]; rat, in vivo, sc, 50 mg/kg) was 0.0038 ± 0.0004 and the Hematocrit ([2]; rat, in vivo, sc, 50 mg/kg) was 41.4 ± 3.5. For the same compound, the Hemoglobin ([2]; rat, in vivo, sc, 50 mg/kg) was 13.8 ± 0.9 g/dL, the Kidneys/B.W. ([2]; rat, in vivo, sc, 50 mg/kg) was 0.0095 ± 0.0011 and the “Lactate dehydrogenase (LDH)” value ([2]; rat, in vivo, sc, 50 mg/kg) was 272 ± 132 U/L. The Liver/B.W. ([2]; rat, in vivo, sc, 50 mg/kg) was 0.0460 ± 0.0044, the Lung/B.W. ([2]; rat, in vivo, sc, 50 mg/kg) was 0.0054 ± 0.0005 and the Lymphocyte ([2]; rat, in vivo, sc, 50 mg/kg) was 6.36 ± 3.70 103/µL. The Lymphocyte % ([2]; rat, in vivo, sc, 50 mg/kg) was 58.95 ± 6.42%, the Mean corpuscle hemoglobin ([2]; rat, in vivo, sc, 50 mg/kg) was 21.8 ± 1.0 pg and the Mean corpuscle volume ([2]; rat, in vivo, sc, 50 mg/kg) was 65.4 ± 2.7 fL. For the same compound, the Mean platelet volume ([2]; rat, in vivo, sc, 50 mg/kg) was 6.4 ± 0.1 fL, the Monocyte ([2]; rat, in vivo, sc, 50 mg/kg) was 0.63 ± 0.36 103/µL and the Monocyte % ([2]; rat, in vivo, sc, 50 mg/kg) was 5.82 ± 1.11%. For the same compound, the Neutrophil ([2]; rat, in vivo, sc, 50 mg/kg) was 3.75 ± 2.13 103/µL, the Neutrophil % ([2]; rat, in vivo, sc, 50 mg/kg) was 35.11 ± 5.51% and the Platelet ([2]; rat, in vivo, sc, 50 mg/kg) was 1327± 239 103/µL. It also gave a Spleen/B.W. ([2]; rat, in vivo, sc, 50 mg/kg) of 0.0021 ± 0.0004, a Testes/B.W. ([2]; rat, in vivo, sc, 50 mg/kg) of 0.0094 ± 0.0006 and a Thymus/B.W. ([2]; rat, in vivo, sc, 50 mg/kg) of 0.0021 ± 0.0006. For the same compound, the White blood cells ([2]; rat, in vivo, sc, 50 mg/kg) was 10.75 ± 6.09 103/µL, the “Expression of epithelial markers (E-cadherin, MTA-3, CLDN3, CLDN5)” value (HCA-1 cells) was “alleviated a hypoxia-induced decrease in the epithelial markers” and the “Expression of mesenchymal markers (Slug, Fibronectin, N-cadherin, Vimentin, FOXC2, Zeb1, Zeb2)” value (HCA-1 cells; dose-dependent) was “restrained the increases in the expression of mesenchymal markers”. For the same compound, the CYP450 inhibition [3] was “no inhibitory effects; also recorded: No inhibition”.

Reference: publication PMC8020795 (Proceedings of the National Academy of Sciences of the …, 2021)
